Two molecules from ChEMBL document CHEMBL5230100, “Novel quinazoline-based EGFR kinase inhibitors: A review focussing on SAR and molecular docking studies (2015-2019)” (Eur J Med Chem, 2020) can be followed below.

The nature of series [1]: Half life in human liver microsomes by LC-MS/MS analysis. Type of series: ADME. A general note: Microsomes from liver hold many membrane-bound enzymes, among them those of drug oxidation.
A short description of series [2]: Volume of distribution at steady state in Sprague-Dawley rat at 10 mg/kg, iv by LC-MS/MS analysis. Type of series: ADME, organism-based. Conditions: in vivo.
Series [3] can be described thus: AUClast in Sprague-Dawley rat plasma at 10 mg/kg, iv by LC-MS/MS analysis. Type of series: ADME, organism-based. More on the design: dose 10 mg/kg, route iv.
A short description of series [4]: AUC (0 to infinity) in Sprague-Dawley rat plasma at 10 mg/kg, iv by LC-MS/MS analysis. Type of series: ADME, organism-based. More on the design: dose 10 mg/kg, route iv.
Series [5] can be described thus: MRT (0 to 24 hrs) in Sprague-Dawley rat plasma at 10 mg/kg, iv by LC-MS/MS analysis. Type of series: ADME, organism-based.
Series [6] in a line: Half life in Sprague-Dawley rat plasma at 10 mg/kg, iv by LC-MS/MS analysis. Type of series: ADME, organism-based. Particulars: in vivo.
The subject of the next series is A-431. Briefly: Antiproliferative activity against human A-431 cells assessed as cell growth inhibition incubated for 24 hrs by MTT assay. Type of series: functional. (Tetrazolium dyes change colour on reduction, which living cells bring about.)
The next series concerns the target Caspase-3 (Homo sapiens) (UniProt P42574). The series can be described thus: Activation of caspase 3 (unknown origin). Conditions: filed as activator.
A further series deals with A549. Briefly: Induction of apoptosis in human A549 cells measured after 48 hrs by Annexin V-FITC/ Propidium iodide staining based flow cytometry relative to control. Type of series: functional. For orientation: In flow cytometry, cells or beads pass a laser one at a time.

Sequence of Caspase-3 (Homo sapiens) (P42574 29-175 limits assumed): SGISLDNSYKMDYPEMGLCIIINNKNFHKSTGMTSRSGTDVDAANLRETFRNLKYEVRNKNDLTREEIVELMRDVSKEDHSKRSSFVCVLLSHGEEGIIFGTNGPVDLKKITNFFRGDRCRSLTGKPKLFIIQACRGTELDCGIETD
Sequence of Caspase-3 (Homo sapiens) (P42574 176-277 limits assumed): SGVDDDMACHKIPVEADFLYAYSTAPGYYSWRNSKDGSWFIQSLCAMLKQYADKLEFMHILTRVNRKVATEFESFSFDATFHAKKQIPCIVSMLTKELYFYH

Broadly, the Vdss is the apparent volume that relates the amount in the body to the concentration in plasma or blood. A high value points to extensive tissue distribution. Broadly, the AUC(0-t) is exposure summed from dosing to a finite time, without extrapolation to infinity. Broadly, the AUC(0-inf) is the area under the concentration-time curve extrapolated to infinity. A high value points to more exposure. In general, MRT last refers to a mean duration of stay, worked out from the concentration-time curve. Turning to `COc1cc2ncnc(Nc3ccc(F)c(Cl)c3)c2cc1OCCCN1CCOCC1` [GEFITINIB], the figures for the t1/2 in series [1] and in series [6] were 0.3752 h and 3.85 h, respectively. Also, the Vdss in [2] was determined as 5.93 L/kg. In addition, in [3], the AUC(0-t) is 7720 ng·h/mL. In [4], this molecule returned an AUC(0-inf) of 7800 ng·h/mL. Moreover, the MRT last in series [5] stood at 4.54 h.

As to `C#Cc1cccc(Nc2ncnc3cc(OCCOC)c(OCCOC)cc23)c1` [ERLOTINIB], in the series on A-431, the IC5 stood at 3 µM. Also, the Activity turned out to be 480 pg/mL at Caspase-3 (Homo sapiens) and 53.9% in the series on A549.
